Columns and labels:
[1] = Half life in simulated intestinal fluid at 20 uM by LC-MS/MS analysis; assay type: ADME
[2] = target: T1, Interleukin-23 receptor (Homo sapiens, UniProt Q5VWK5); experiment: Inhibition of interleukin-23 binding to human interleukin-23 receptor incubated for 2 hrs by competitive binding ELISA
T1 sequence (Q5VWK5 whole entry): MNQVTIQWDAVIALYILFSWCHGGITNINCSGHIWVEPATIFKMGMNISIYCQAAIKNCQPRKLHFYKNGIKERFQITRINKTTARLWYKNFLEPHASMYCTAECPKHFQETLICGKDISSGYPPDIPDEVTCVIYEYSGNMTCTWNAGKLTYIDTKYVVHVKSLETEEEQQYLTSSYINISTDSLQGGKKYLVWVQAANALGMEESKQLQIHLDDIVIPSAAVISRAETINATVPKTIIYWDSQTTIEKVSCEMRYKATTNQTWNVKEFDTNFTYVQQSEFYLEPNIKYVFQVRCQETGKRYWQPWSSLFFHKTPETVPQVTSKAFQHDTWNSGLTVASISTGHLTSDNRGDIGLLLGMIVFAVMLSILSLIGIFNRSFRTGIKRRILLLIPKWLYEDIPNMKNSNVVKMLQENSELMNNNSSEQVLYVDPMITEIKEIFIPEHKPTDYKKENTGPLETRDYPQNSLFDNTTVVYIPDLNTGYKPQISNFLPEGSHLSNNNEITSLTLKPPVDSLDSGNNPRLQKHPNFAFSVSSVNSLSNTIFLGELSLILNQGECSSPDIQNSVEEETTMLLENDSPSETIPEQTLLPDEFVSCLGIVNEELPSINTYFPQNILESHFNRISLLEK

[3] = Half life in simulated gastric fluid at 20 uM by LC-MS/MS analysis; assay type: ADME
[4] = target: T1, Interleukin-23 receptor; experiment: Inhibition of interleukin-23 receptor in human DB cells assessed as reduction in IL-23-stimulated STAT3 phosphorylation incubated for 30 mins by HTRF assay; assay type: cell-based

half-life at 20 µM [1] [h]	IC50 [2] [nM]	half-life at 20 µM [3] [h]	IC50 [4] [nM]	SMILES
> 6		> 6	< 10	CC(=O)NCCCC[C@H](NC(=O)C(C)(C)NC(=O)[C@H](Cc1ccc2ccccc2c1)NC(=O)[C@H](Cc1ccc(OCCN)cc1)NC(=O)[C@@H](NC(=O)[C@H](CCC(N)=O)NC(=O)[C@H](Cc1c[nH]c2ccccc12)NC(=O)[C@@H](NC(=O)[C@H](CC(N)=O)NC(=O)[C@@H](NC(C)=O)C(C)(C)S)[C@@H](C)O)C(C)(C)S)C(=O)N[C@@H](CC(N)=O)C(=O)N[C@@H](C)C(N)=O
> 6		> 6	< 10	CC(=O)NCCCC[C@H](NC(=O)C(C)(C)NC(=O)[C@H](Cc1ccc2ccccc2c1)NC(=O)[C@H](Cc1ccc(OCCN)cc1)NC(=O)[C@@H](NC(=O)[C@H](CCC(N)=O)NC(=O)[C@H](Cc1c[nH]c2ccccc12)NC(=O)[C@@H](NC(=O)[C@H](CC(N)=O)NC(=O)[C@@H](NC(C)=O)C(C)(C)S)[C@@H](C)O)C(C)(C)S)C(=O)N[C@@H](CC(N)=O)C(=O)N[C@@H](CCC(N)=O)C(N)=O
> 6		> 6		COc1ccc(C[C@H](NC(=O)[C@@H](NC(=O)[C@H](CCC(N)=O)NC(=O)[C@H](Cc2c[nH]c3ccccc23)NC(=O)[C@@H](NC(=O)[C@H](CC(N)=O)NC(=O)[C@@H](NC(C)=O)C(C)(C)S)[C@@H](C)O)C(C)(C)S)C(=O)N[C@@H](Cc2ccc3ccccc3c2)C(=O)NC2(C(=O)N[C@@H](CCCCNC(C)=O)C(=O)N[C@@H](CC(N)=O)C(=O)N[C@@H](CC(N)=O)C(N)=O)CCOCC2)cc1
< 1		< 1	< 10	COc1ccc(C[C@H](NC(=O)[C@@H](NC(=O)[C@H](CCC(N)=O)NC(=O)[C@H](Cc2c[nH]c3ccccc23)NC(=O)[C@@H](NC(=O)[C@H](CC(N)=O)NC(=O)[C@@H](NC(C)=O)C(C)(C)S)[C@@H](C)O)C(C)(C)S)C(=O)N[C@@H](Cc2ccc3ccccc3c2)C(=O)N[C@@H](CCC(C)C)C(=O)N[C@@H](CCCCNC(C)=O)C(=O)N[C@@H](CC(N)=O)C(=O)NCCC(N)=O)cc1
3 to 6		> 6		COc1ccc(C[C@H](NC(=O)[C@@H](NC(=O)[C@H](CCC(N)=O)NC(=O)[C@H](Cc2c[nH]c3ccccc23)NC(=O)[C@@H](NC(=O)[C@H](CC(N)=O)NC(=O)[C@@H](NC(C)=O)C(C)(C)S)[C@@H](C)O)C(C)(C)S)C(=O)N[C@@H](Cc2ccc3ccccc3c2)C(=O)NC2(C(=O)N[C@@H](CCCCNC(C)=O)C(=O)N[C@@H](CC(N)=O)C(=O)N[C@@H](CC(N)=O)C(N)=O)CCCCC2)cc1

Further lines, the molecule ahead of its results:

SMILES	half-life at 20 µM [1] [h]	IC50 [2] [nM]	half-life at 20 µM [3] [h]	IC50 [4] [nM]
COc1ccc(C[C@H](NC(=O)[C@@H]2CSCC[C@H](NC(C)=O)C(=O)N[C@@H](CCC(N)=O)C(=O)N[C@@H]([C@@H](C)O)C(=O)N[C@@H](Cc3c[nH]c4ccccc34)C(=O)N[C@@H](CCC(N)=O)C(=O)N2)C(=O)N[C@@H](Cc2ccc3ccccc3c2)C(=O)N[C@H](C(=O)N[C@@H](CCCCNC(C)=O)C(=O)N[C@@H](CC(N)=O)C(=O)NCC(N)=O)C2CCCCC2)cc1	2 to 6	25 to 100	3 to 6	
COc1ccc(C[C@H](NC(=O)[C@@H](NC(=O)[C@H](CCC(N)=O)NC(=O)[C@H](Cc2c[nH]c3ccccc23)NC(=O)[C@@H](NC(=O)[C@H](CC(N)=O)NC(=O)[C@@H](NC(C)=O)C(C)(C)S)[C@@H](C)O)C(C)(C)S)C(=O)N[C@@H](Cc2ccc3ccccc3c2)C(=O)NC(C)(C)C(=O)N[C@@H](CCC(=O)O)C(=O)N[C@@H](CC(N)=O)C(=O)N[C@@H](CC(N)=O)C(N)=O)cc1	2 to 3		> 6	< 10
CC(=O)NCCCC[C@H](NC(=O)C(C)(C)NC(=O)[C@H](Cc1ccc2ccccc2c1)NC(=O)[C@H](Cc1ccc(OCCN)cc1)NC(=O)[C@@H](NC(=O)[C@H](CCC(N)=O)NC(=O)[C@H](Cc1c[nH]c2ccccc12)NC(=O)[C@@H](NC(=O)[C@@H](NC(=O)[C@@H](NC(C)=O)C(C)(C)S)[C@@H](C)O)[C@@H](C)O)C(C)(C)S)C(=O)N[C@@H](CC(N)=O)C(=O)N[C@@H](CC(N)=O)C(N)=O	> 6		> 6	< 10
COc1ccc(C[C@H](NC(=O)[C@@H](NC(=O)[C@H](CCC(N)=O)NC(=O)[C@H](Cc2c[nH]c3ccccc23)NC(=O)[C@@H](NC(=O)[C@H](CCC(N)=O)NC(=O)[C@@H](NC(C)=O)C(C)(C)S)[C@@H](C)O)C(C)(C)S)C(=O)N[C@@H](Cc2ccc3ccccc3c2)C(=O)NC(C)(C)C(=O)N[C@@H](CCC(=O)O)C(=O)N[C@@H](CC(N)=O)C(=O)N[C@@H](CC(N)=O)C(N)=O)cc1	2 to 3		> 6	< 10
CC(=O)NCCCC[C@H](NC(=O)C1(NC(=O)[C@H](Cc2ccc3ccccc3c2)NC(=O)[C@H](Cc2ccc(C(N)=O)cc2)NC(=O)[C@@H](NC(=O)[C@H](CCC(N)=O)NC(=O)[C@H](Cc2c[nH]c3ccccc23)NC(=O)[C@@H](NC(=O)[C@H](CC(N)=O)NC(=O)[C@@H](NC(C)=O)C(C)(C)S)[C@@H](C)O)C(C)(C)S)CCOCC1)C(=O)N[C@@H](CC(N)=O)C(=O)N[C@@H](CC(N)=O)C(N)=O	> 6		3 to 6	
CC(=O)N[C@@H](Cc1ccccc1)C(=O)N[C@H]1CCSC[C@@H](C(=O)N[C@@H](Cc2ccc(OCCN)cc2)C(=O)N[C@@H](Cc2ccc3ccccc3c2)C(=O)N[C@@](C)(CCCCN)C(=O)N[C@@H](CCC(=O)O)C(=O)N[C@@H](CC(N)=O)C(=O)N[C@@H](CC(N)=O)C(N)=O)NC(=O)[C@H](CCC(N)=O)NC(=O)[C@H](Cc2c[nH]c3ccccc23)NC(=O)[C@H]([C@@H](C)O)NC(=O)[C@H](CCC(N)=O)NC1=O	1 to 2		2 to 3	
CC(=O)NCCCC[C@](C)(NC(=O)[C@H](Cc1ccc2ccccc2c1)NC(=O)[C@H](Cc1ccc(OCCNC(C)=O)cc1)NC(=O)[C@@H](NC(=O)[C@H](CCC(N)=O)NC(=O)[C@H](Cc1c[nH]c2ccccc12)NC(=O)[C@@H](NC(=O)[C@](C)(CCCNC(C)=O)NC(=O)[C@@H](NC(C)=O)C(C)(C)S)[C@@H](C)O)C(C)(C)S)C(=O)N[C@@H](CCC(=O)O)C(=O)N[C@@H](CC(N)=O)C(=O)NCC(N)=O	1 to 2	100 to 1000	3 to 6	
CC(=O)NCCCC[C@H](NC(=O)C1(NC(=O)[C@H](Cc2ccc3ccccc3c2)NC(=O)[C@H](Cc2ccc(C(N)=O)cc2)NC(=O)[C@@H](NC(=O)[C@H](CCC(N)=O)NC(=O)[C@H](Cc2c[nH]c3ccccc23)NC(=O)[C@@H](NC(=O)[C@H](CC(N)=O)NC(=O)[C@@H](NC(C)=O)C(C)(C)S)[C@@H](C)O)C(C)(C)S)CCCCC1)C(=O)N[C@@H](CC(N)=O)C(=O)N[C@@H](CC(N)=O)C(N)=O	> 6		> 6	
CC(=O)N[C@@H](CCCNC(=N)N)C(=O)N[C@H]1CCSC[C@@H](C(=O)N[C@@H](Cc2ccc(OCCN)cc2)C(=O)N[C@@H](Cc2ccc3ccccc3c2)C(=O)N[C@@](C)(CCCCN)C(=O)N[C@@H](CCC(=O)O)C(=O)N[C@@H](CC(N)=O)C(=O)N[C@@H](CC(N)=O)C(N)=O)NC(=O)[C@H](CCC(N)=O)NC(=O)[C@H](Cc2c[nH]c3ccccc23)NC(=O)[C@H]([C@@H](C)O)NC(=O)[C@H](CCC(N)=O)NC1=O	< 1		2 to 3	

From ChEMBL document CHEMBL4417631, “Oral peptide inhibitors of interleukin-23 receptor and their use to treat inflammatory bowel diseases” (2017)
